Assay [1] relates to TRZSS: wheat, including spring and winter (Triticum aestivum). The assay can be described thus: Post-emergent Test III, herbicidal activity in wheat and barley. Format: in vivo. The following applies: 21 d; for GR20 TRZSS: dose for 20 percent growth reduction, probit analysis; for pest or weed control at 35 g/ha / pest or weed control at 70 g/ha: Triticum aestivum, post-emergence, 504 h, post-emergent, read-out: Visual Growth Reduction (%) 21 Days After Application TRZSS; for pest or weed control at 35 g/ha: 35 g ai/ha; for pest or weed control at 70 g/ha: 70 g ai/ha. The essentials: (§1)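 GR20, GR50, GR80 and GR90 come from probit analysis of visual injury scores (0 = none, 100 = complete kill) taken 21 d after treatment. Foliar application was by track sprayer delivering 187 L/ha at five rates, from high down to 1/16×, onto greenhouse plants at the 2–3 leaf stage, with solvent-blank controls.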

Assay [2] relates to APESV: bentgrass (Apera spica-venti). The assay is described as above. Particulars: for pest or weed control at 35 g/ha: 35 g ai/ha; for pest or weed control at 70 g/ha: 70 g ai/ha; for GR50 APESV / GR80 APESV: probit analysis. It counts as in vivo. The essentials: as §1
The test system of assay [3] is LOLSS: ryegrass including, Italian ryegrass (Lolium multiflorum), rigid ryegrass (Lolium rigidum), annual ryegrass (Lolium multiflorum subsp. Gaudini). Described as above. It counts as in vivo. The following applies: Table 9, probit analysis, 21 d. The gist of the method:
as §1

Assay [4] deals with HORSS: barley, including spring and winter (Hordeum vulgare). Described as above. It counts as in vivo. The following applies: 21 d; for pest or weed control at 35 g/ha / pest or weed control at 70 g/ha: Hordeum vulgare, post-emergence, 504 h, post-emergent, read-out: Visual Growth Reduction (%) 21 Days After Application HORSS; for pest or weed control at 35 g/ha: 35 g ai/ha; for pest or weed control at 70 g/ha: 70 g ai/ha; for GR20 HORSS: dose for 20 percent growth reduction, probit analysis. The essentials:
as §1

Assay in assay [5]: as above
It counts as in vivo, Lolium multiflorum, Lolium rigidum. Particulars: Lolium multiflorum, post-emergence, 504 h, read-out: Visual Growth Reduction (%) 21 Days After Application LOLSS; for pest or weed control at 35 g/ha: 35 g ai/ha; for pest or weed control at 70 g/ha: 70 g ai/ha. The gist of the method:
as §1

The test system of assay [6] is KCHSC: kochia (Kochia scoparia). The assay is described as above. Format: in vivo. Particulars: for pest or weed control at 35 g/ha: 35 g ai/ha; for pest or weed control at 70 g/ha: 70 g ai/ha; for GR50 KCHSC / GR80 KCHSC: probit analysis. The gist of the method:
as §1

Assay [7] has as its system SASKR: Russian thistle (Salsola iberica). Described as above. It counts as in vivo. The following applies: Table 8, 21 d. The gist of the method: as §1
In assay [8] the test system is VIOSS: wild pansy (Viola tricolor), field violet (Viola arvensis). The assay is described as above. It counts as in vivo. Particulars: Table 8, 21 d. The gist of the method:
as §1

Another assay concerns LAMSS. The assay is described as above. Format: in vivo. The following applies: for GR50 LAMSS / GR80 LAMSS: probit analysis; for pest or weed control at 35 g/ha: 35 g ai/ha; for pest or weed control at 70 g/ha: 70 g ai/ha. The gist of the method: as §1
Assay [9] deals with MATSS: scented mayweed (Matricaria chamomilla), pineappleweed (Matricaria matricarioides). The description is as above. It counts as in vivo. Particulars: for pest or weed control at 35 g/ha: 35 g ai/ha; for pest or weed control at 70 g/ha: 70 g ai/ha; for GR50 MATSS / GR80 MATSS: probit analysis. The gist of the method: as §1
Assay [10] deals with VERPE: bird's-eye speedwell (veronica persica). Described as above. It counts as in vivo. Particulars: Table 8, 21 d. The gist of the method: as §1
The mark [11] stands for this setting: Apera spica-venti, post-emergence, 504 h, Table 9, post-emergent, 21 d, read-out: Visual Growth Reduction (%) 21 Days After Application APESV.
Where [12] appears, read: Table 9, dose for 50 percent growth reduction, 21 d.
Where [13] appears, read: Table 9, dose for 80 percent growth reduction, 21 d.
The mark [14] stands for this setting: Bassia scoparia, post-emergence, 504 h, Table 9, post-emergent, 21 d, read-out: Visual Growth Reduction (%) 21 Days After Application KCHSC.
The mark [15] stands for this setting: dose for 50 percent growth reduction, probit analysis.
Setting [16] is: dose for 80 percent growth reduction, probit analysis.
[17] abbreviates: Table 8, dose for 50 percent growth reduction, 21 d.
Setting [18] is: Table 8, dose for 80 percent growth reduction, 21 d.
The mark [19] stands for this setting: post-emergence, 504 h, Table 8, post-emergent, 21 d, read-out: Visual Growth Reduction (%) 21 Days After Application LAMSS.
The mark [20] stands for this setting: Matricaria chamomilla, post-emergence, 504 h, Table 8, post-emergent, 21 d, read-out: Visual Growth Reduction (%) 21 Days After Application MATSS.
Where [21] appears, read: Bassia scoparia, post-emergence, 504 h, Table 8, post-emergent, 21 d, read-out: Visual Growth Reduction (%) 21 Days After Application KCHSC.
Setting [22] is: Apera spica-venti, post-emergence, 504 h, read-out: Visual Growth Reduction (%) 21 Days After Application APESV.
Setting [23] is: dose for growth reduction of 50 percent, 21 days after application.
Setting [24] is: dose for growth reduction of 80 percent, 21 days after application.
The mark [25] stands for this setting: post-emergence, 504 h, read-out: Visual Growth Reduction (%) 21 Days After Application LAMSS.
The mark [26] stands for this setting: Matricaria chamomilla, post-emergence, 504 h, read-out: Visual Growth Reduction (%) 21 Days After Application MATSS.
The mark [27] stands for this setting: Bassia scoparia, post-emergence, 504 h, read-out: Visual Growth Reduction (%) 21 Days After Application KCHSC.

Like-named read-outs stand apart in the source and are kept apart here.

With `C#Cc1ccc(-c2nc(N)c(OC)c(C(=O)O)n2)cc1` [Compound 28], the “GR20 TRZSS” value in assay [1] (Table 9) was determined as 17 g ai/ha. The pest or weed control at 35 g/ha in assay [1] (Table 9) fell in the range of 30 to 44%; in [2] (setting [11]), 0 to 29%; in [4] (Table 9) it was 0 to 29%; in assay [5] (Table 9, post-emergent, 21 d) it was 0 to 29%; in assay [6] (setting [14]), 0 to 29%. Besides, the pest or weed control at 70 g/ha in [1] (Table 9) lay within 60 to 74%; in [2] (setting [11]), 0 to 29%; in assay [4] (Table 9), 30 to 44%; in assay [5] (Table 9, post-emergent, 21 d), 0 to 29%; in [6] (setting [14]) it was 30 to 44%. In addition, the “GR50 APESV” value in [2] (setting [12]) was greater than 140 g ai/ha. Further, the “GR80 APESV” value in assay [2] (setting [13]) was greater than 140 g ai/ha. Further, the “GR50 LOLSS” value in assay [3] (dose for 50 percent growth reduction) is reported as greater than 140 g ai/ha. The “GR80 LOLSS” value in [3] (dose for 80 percent growth reduction) is reported as greater than 140 g ai/ha. Besides, the “GR20 HORSS” value in assay [4] (Table 9) came to 43 g ai/ha. Moreover, the “GR50 KCHSC” value in [6] (setting [12]) came to 88 g ai/ha. Further, the “GR80 KCHSC” value in [6] (setting [13]) is given as greater than 140 g ai/ha.
Take `COc1c(N)nc(-c2ccc(Br)c(F)c2)nc1C(=O)O` [Compound 113, 6-Amino-2-(4-bromo-3-fluorophenyl)-5-methoxypyrimidine-4-carboxylic acid]: the pest or weed control at 35 g/ha in assay [7] (Salsola tragus, post-emergence, 504 h, 35 g ai/ha, post-emergent, read-out: Visual Growth Reduction (%) 21 Days After Application SASKR) is 75 to 84%; in [1] (Table 8) it was 85 to 94%; in [8] (Viola tricolor, post-emergence, 504 h, 35 g ai/ha, post-emergent, read-out: Visual Growth Reduction (%) 21 Days After Application VIOSS), 95 to 100%; in the assay on LAMSS (setting [19]) it was 95 to 100%; in assay [9] (setting [20]), 85 to 94%; in [4] (Table 8), 85 to 94%. The pest or weed control at 35 g/ha in assay [10] (Veronica persica, post-emergence, 504 h, 35 g ai/ha, post-emergent, read-out: Visual Growth Reduction (%) 21 Days After Application VERPE) lay in the range of 85 to 94%; in [6] (setting [21]), 95 to 100%. The pest or weed control at 70 g/ha in assay [7] (Salsola tragus, post-emergence, 504 h, 70 g ai/ha, post-emergent, read-out: Visual Growth Reduction (%) 21 Days After Application SASKR) was 85 to 94%; in assay [1] (Table 8), 85 to 94%; in [8] (Viola tricolor, post-emergence, 504 h, 70 g ai/ha, post-emergent, read-out: Visual Growth Reduction (%) 21 Days After Application VIOSS) it was 95 to 100%; in the assay with LAMSS (setting [19]), 95 to 100%; in [9] (setting [20]), 95 to 100%; in [4] (Table 8), 95 to 100%. Besides, the pest or weed control at 70 g/ha in assay [10] (Veronica persica, post-emergence, 504 h, 70 g ai/ha, post-emergent, read-out: Visual Growth Reduction (%) 21 Days After Application VERPE) lay within 85 to 94%; in assay [6] (setting [21]), 95 to 100%. In addition, in [7] (setting [15]), the “GR50 SASKR” value was determined as 5 g ai/ha. The “GR80 SASKR” value in assay [7] (setting [16]) came out at 36 g ai/ha. The “GR20 TRZSS” value in assay [1] (Table 8) turned out to be 1 g ai/ha. Also, the “GR50 VIOSS” value in assay [8] (setting [15]) came to 4 g ai/ha. In assay [8] (setting [16]), the “GR80 VIOSS” value was determined as 11 g ai/ha. Also, in the assay on LAMSS (setting [17]), the “GR50 LAMSS” value is recorded as 1 g ai/ha. Moreover, the “GR80 LAMSS” value with LAMSS (setting [18]) is on record as 4 g ai/ha. Further, the “GR50 MATSS” value in assay [9] (setting [17]) is given as 4 g ai/ha. Further, in assay [9] (setting [18]), the “GR80 MATSS” value turned out to be 15 g ai/ha. Besides, in assay [4] (Table 8), the “GR20 HORSS” value was 1 g ai/ha. In addition, the “GR50 VERPE” value in assay [10] (setting [15]) is given as 3 g ai/ha. Moreover, the “GR80 VERPE” value in [10] (setting [16]) was determined as 18 g ai/ha. Also, the “GR50 KCHSC” value in assay [6] (setting [17]) worked out at 3 g ai/ha. In [6] (setting [18]), the “GR80 KCHSC” value is reported as 10 g ai/ha.
With `COC(=O)c1nc(-c2ccc(F)cc2)c(F)c(N)c1Cl` [Compound 204], the pest or weed control at 35 g/ha in assay [2] (setting [22]) lay within 0 to 29%; with LAMSS (setting [25]), 85 to 94%; in [9] (setting [26]), 0 to 29%; in assay [5] it was 0 to 29%; in [6] (setting [27]), 85 to 94%. The pest or weed control at 70 g/ha in assay [2] (setting [22]) lay in the range of 30 to 44%; in the assay with LAMSS (setting [25]), 95 to 100%; in [9] (setting [26]), 0 to 29%; in [5], 0 to 29%; in [6] (setting [27]), 95 to 100%. The pest or weed control at 140 g/ha lay within 60 to 74% in [2] (Apera spica-venti, post-emergence, 504 h, 140 g ai/ha, read-out: Visual Growth Reduction (%) 21 Days After Application APESV); 95 to 100% with LAMSS (post-emergence, 504 h, 140 g ai/ha, read-out: Visual Growth Reduction (%) 21 Days After Application LAMSS); 0 to 29% in assay [9] (Matricaria chamomilla, post-emergence, 504 h, 140 g ai/ha, read-out: Visual Growth Reduction (%) 21 Days After Application MATSS); 0 to 29% in [5] (140 g ai/ha); 95 to 100% in assay [6] (Bassia scoparia, post-emergence, 504 h, 140 g ai/ha, read-out: Visual Growth Reduction (%) 21 Days After Application KCHSC). For the same compound, in [2] (setting [23]), the “GR50 APESV” value worked out at 106 g ai/ha. Also, in assay [2] (setting [24]), the “GR80 APESV” value is given as greater than 140 g ai/ha. The “GR50 LAMSS” value with LAMSS (setting [23]) came out at 1 g ai/ha. The “GR80 LAMSS” value in the assay on LAMSS (setting [24]) was determined as 8 g ai/ha. For the same compound, the “GR50 MATSS” value in [9] (setting [23]) is listed as greater than 140 g ai/ha. Besides, the “GR80 MATSS” value in [9] (setting [24]) is listed as greater than 140 g ai/ha. For the same compound, in assay [6] (setting [23]), the “GR50 KCHSC” value turned out to be 2 g ai/ha. Moreover, the “GR80 KCHSC” value in [6] (setting [24]) amounted to 9 g ai/ha.

The values are drawn from patent US9113629B2, “4-amino-6-(4-substituted-phenyl)-picolinates and 6-amino-2-(4-substituted-phenyl)-pyrimidine-4-carboxylates and their use as herbicides” (DOW AGROSCIENCES LLC, priority 2013, dated 2015).
